Results reported in patent US10421760B2, “Pyrrolo[2,3-d]pyrimidine compound or salt thereof” (TAIHO PHARMACEUTICAL CO., LTD., priority 2015, dated 2019).

How the values were obtained:
[1] = molecular target: purified recombinant human JAK1 protein (Homo sapiens (Human), UniProt P23458); assay: JAK1 kinase-inhibiting activity (mobility shift, LabChip EZ Reader II); type: biochemical; details: ATP 75 μM, 25° C., 120 minutes
Protocol: 1) Measurement of JAK1 Kinase-Inhibiting Activity
The activity of the compound of the present invention to inhibit the activity of JAK1 kinase was measured.
(§1) Among materials for the measurement of this inhibiting activity, a substrate peptide and a kinase protein were acquired as follows. As such a substrate peptide, a substrate peptide for QSS Assist JAK1-MSA assay kit (Carna Biosciences, Inc.) was purchased. As such a kinase protein, a purified recombinant human JAK1 protein (Carna Biosciences, Inc.) was purchased.
The method for measuring the inhibiting activity is as follows. First, the compounds of the present invention were each dissolved in dimethyl sulfoxide (DMSO), and a serial dilution was then prepared using DMSO. Subsequently, a serial dilution solution of the compound (the final concentration of DMSO upon a kinase reaction: 5.0%) or DMSO (final concentration: 5.0%) was mixed with a solution comprising the substrate peptide (final concentration: 1 μM), magnesium chloride (final concentration: 5 mM) and ATP (final concentration: 75 μM) in a buffer for kinase reaction (20 mM HEPES (pH 7.5), 2 mM dithiothreitol and 0.01% Triton X-100). Thereafter, a JAK1 protein was further added to the mixed solution, and the obtained mixture was then incubated at 25° C. for 120 minutes to carry out a kinase reaction. To the reaction solution, EDTA was added to a final concentration of 30 mM, so as to terminate the reaction. Finally, using LabChip EZ Reader II (Perkin Elmer Corp.), an unphosphorylated substrate peptide (S) and a phosphorylated peptide (P) were subjected to microchannel capillary electrophoresis, so that the two peptides were separated from each other and were then detected. The amount of a phosphorylation reaction was obtained based on the heights of the peaks of S and P, and the concentration of the compound capable of inhibiting 50% of the phosphorylation reaction was defined as an IC50 value (nM).

[2] = molecular target: purified recombinant human JAK2 protein (Homo sapiens (Human), UniProt O60674); assay: JAK2 kinase-inhibiting activity (mobility shift, LabChip EZ Reader II); type: biochemical; details: ATP 10 μM, 25° C., 80 minutes
Protocol: 2) Measurement of JAK2 Kinase-Inhibiting Activity
The activity of the compound of the present invention to inhibit the activity of JAK2 kinase was measured.
as §1, with “FL-Peptide 22 (Perkin Elmer Corp.)” for “a substrate peptide for QSS Assist JAK1-MSA assay kit (Carna Biosciences, Inc.)”, “JAK2” for “JAK1”
(§2) The method for measuring the inhibiting activity is as follows. First, a serial dilution of the compound of the present invention was prepared by the same method as that described in the above section regarding JAK1. This serial dilution solution (the final concentration of DMSO upon a kinase reaction: 5.0%) or DMSO (final concentration: 5.0%) was mixed with a solution comprising the substrate peptide (final concentration: 1 μM), magnesium chloride (final concentration: 10 mM) and ATP (final concentration: 10 μM) in a buffer for kinase reaction (15 mM Tris (pH 7.5), 2 mM dithiothreitol and 0.01% Tween 20). Thereafter, a JAK2 protein was further added to the mixed solution, and the obtained mixture was then incubated at 25° C. for 80 minutes to carry out a kinase reaction. To the reaction solution, EDTA was added to a final concentration of 30 mM, so as to terminate the reaction. After termination of the reaction, the measurement and the data analysis were carried out by the same methods as those described in the above section regarding JAK1.

[3] = molecular target: purified recombinant human JAK3 protein (Homo sapiens (Human), UniProt P52333); assay: JAK3 kinase-inhibiting activity (mobility shift, LabChip EZ Reader II); type: biochemical; details: ATP 5 μM, 25° C., 80 minutes
Protocol: 3) Measurement of JAK3 Kinase-Inhibiting Activity
The activity of the compound of the present invention to inhibit the activity of JAK3 kinase was measured.
as §1, with “JAK3-MSA” for “JAK1-MSA”, “JAK3” for “JAK1”
as §2, with “5” for “10”, “(20” for “(15”, “HEPES” for “Tris”, “Triton X-100).” for “Tween 20).”, “JAK3” for “JAK2”

human PBMC = assay: IL-2-dependent growth of human peripheral blood mononuclear cells (CellTiter-Glo); type: cell-based; details: 48 h, IL-2 2 ng/mL stimulation, 2 days
Protocol: The activity of the compound of the present invention to inhibit the IL-2-dependent growth reaction of human PBMC, which is caused by JAK3, was measured (Arthritis Rheum. 2010; 62(8): 2283-93).
Using a medium comprising 10 μg/mL PHA-M (Sigma) (which is RPMI-1640 (Sigma) comprising 10% human serum type AB (MP Biomedicals)), human PBMC (C.T.L.) (cell density: 1×10^6 cells/mL) was cultured at 37° C. in a culture vessel comprising 5% carbon dioxide for 3 days. Thereafter, the culture was washed with RPMI-1640 four times, and a medium (RPMI-1640 comprising 10% human serum type AB) was then added to the resultant culture to prepare a cell suspension. The cells (1×10^4 cells per well) and the serially diluted compound of the present invention were added to each well of a 96-well U-bottom microplate, and the thus obtained mixture was then cultured at 37° C. in a culture vessel comprising 5% carbon dioxide for 30 minutes. After completion of the culture, recombinant human IL-2 (Peprotech) was added to the culture to a final concentration of 2 ng/mL, and the obtained mixture was then stirred at 37° C. in a culture vessel comprising 5% carbon dioxide for 2 days (1×10^4 cells/100 μl/each well). After completion of the culture, the resultant was left at a room temperature for 30 minutes, and 100 μl of CellTiter-Glo Luminescent Cell Viability Assay (Promega) was then added to the resultant, followed by stirring it. Thereafter, the reaction mixture was left for 10 minutes, and the amount of a luminescence derived from living cells in each well was then measured using a microplate reader (TECAN). The inhibition rate of the present compound to the cell growth caused by IL-2 stimulation was calculated, and the concentration of the compound capable of inhibiting 50% of the cell growth was defined as an IC50 value (nM).

[4] = test system: IL-2-induced IFN-γ production; assay: Mouse IL-2-induced IFN-γ production test; type: in vivo; details: oral 1 mg/kg and 3 mg/kg, serum 3 hours after IL-2, BALB/c mice
Protocol: The inhibitory activity of the compound of the present invention and the compounds of comparative examples on mouse IL-2-induced IFN-γ production caused by JAK3 was measured (Arthritis Rheum. 2010; 62 (8): 2283-93, Inflammation Research 2015; 64 (1): 41-51).
Seven-week-old male BALB/c mice (Charles River Japan) were divided into five groups (6 mice per group), namely, a vehicle group, a Compound 7 (1 mpk) group, a Compound 7 (3 mpk) group, a Comparative Example 12 (1 mpk) group, and a Comparative Example 12 (3 mpk) group. Compound 7 and the compound of Comparative Example 12 were each administered to the 1 mpk group and the 3 mpk group via oral administration at doses of 1 mg/kg and 3 mg/kg, respectively. […] Three hours after administration of IL-2, blood was collected from all of the five groups, and the IFN-γ concentration in the serum was measured using BD In Vivo Capture Assay for Mouse IFN-γ (BD Biosciences). The relative amount of IFN-γ generated by IL-2 stimulation was calculated according to the following calculation formula: Relative amount of IFN-γ=(IFN-γ concentration of each group)×100/(IFN-γ concentration of vehicle group), and the results are shown in FIG. 1 (mean value±standard error: regarding vs Vehicle, Dunnett test, *: p<0.05, ***: p<0.001; regarding vs Comparative Example 12 (3 mpk), Student t-test, ##: p<0.01).

Sequence of purified recombinant human JAK3 protein (P52333 whole entry): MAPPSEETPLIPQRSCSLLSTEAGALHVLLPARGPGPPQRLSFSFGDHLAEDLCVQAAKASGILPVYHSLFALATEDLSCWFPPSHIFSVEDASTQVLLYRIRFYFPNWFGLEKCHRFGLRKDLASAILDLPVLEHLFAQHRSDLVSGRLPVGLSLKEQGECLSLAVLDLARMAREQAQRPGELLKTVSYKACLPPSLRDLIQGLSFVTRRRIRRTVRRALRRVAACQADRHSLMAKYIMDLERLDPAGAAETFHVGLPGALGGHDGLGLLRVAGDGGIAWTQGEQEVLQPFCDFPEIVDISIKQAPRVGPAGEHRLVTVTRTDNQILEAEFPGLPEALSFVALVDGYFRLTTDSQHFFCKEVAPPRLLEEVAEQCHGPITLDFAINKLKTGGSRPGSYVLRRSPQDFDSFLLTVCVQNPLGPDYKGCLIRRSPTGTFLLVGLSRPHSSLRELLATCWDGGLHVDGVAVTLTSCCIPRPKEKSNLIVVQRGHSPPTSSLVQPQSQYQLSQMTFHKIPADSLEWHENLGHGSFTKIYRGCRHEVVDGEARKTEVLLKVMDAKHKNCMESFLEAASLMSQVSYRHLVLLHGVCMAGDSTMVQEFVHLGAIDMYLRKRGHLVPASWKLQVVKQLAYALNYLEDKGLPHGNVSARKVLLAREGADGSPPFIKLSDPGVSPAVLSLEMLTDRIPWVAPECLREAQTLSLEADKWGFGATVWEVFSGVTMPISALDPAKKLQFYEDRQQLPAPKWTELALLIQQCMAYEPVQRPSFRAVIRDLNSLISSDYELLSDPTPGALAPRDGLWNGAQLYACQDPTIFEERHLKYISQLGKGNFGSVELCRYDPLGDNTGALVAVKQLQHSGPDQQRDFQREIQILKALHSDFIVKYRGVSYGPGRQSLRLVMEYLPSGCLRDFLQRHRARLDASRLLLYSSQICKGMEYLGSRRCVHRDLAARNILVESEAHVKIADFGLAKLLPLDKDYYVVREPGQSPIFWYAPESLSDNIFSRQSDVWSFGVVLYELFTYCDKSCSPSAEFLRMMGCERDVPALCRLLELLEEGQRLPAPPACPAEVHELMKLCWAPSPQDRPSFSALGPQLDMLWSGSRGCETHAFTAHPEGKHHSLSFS
Sequence of purified recombinant human JAK1 protein (P23458 whole entry): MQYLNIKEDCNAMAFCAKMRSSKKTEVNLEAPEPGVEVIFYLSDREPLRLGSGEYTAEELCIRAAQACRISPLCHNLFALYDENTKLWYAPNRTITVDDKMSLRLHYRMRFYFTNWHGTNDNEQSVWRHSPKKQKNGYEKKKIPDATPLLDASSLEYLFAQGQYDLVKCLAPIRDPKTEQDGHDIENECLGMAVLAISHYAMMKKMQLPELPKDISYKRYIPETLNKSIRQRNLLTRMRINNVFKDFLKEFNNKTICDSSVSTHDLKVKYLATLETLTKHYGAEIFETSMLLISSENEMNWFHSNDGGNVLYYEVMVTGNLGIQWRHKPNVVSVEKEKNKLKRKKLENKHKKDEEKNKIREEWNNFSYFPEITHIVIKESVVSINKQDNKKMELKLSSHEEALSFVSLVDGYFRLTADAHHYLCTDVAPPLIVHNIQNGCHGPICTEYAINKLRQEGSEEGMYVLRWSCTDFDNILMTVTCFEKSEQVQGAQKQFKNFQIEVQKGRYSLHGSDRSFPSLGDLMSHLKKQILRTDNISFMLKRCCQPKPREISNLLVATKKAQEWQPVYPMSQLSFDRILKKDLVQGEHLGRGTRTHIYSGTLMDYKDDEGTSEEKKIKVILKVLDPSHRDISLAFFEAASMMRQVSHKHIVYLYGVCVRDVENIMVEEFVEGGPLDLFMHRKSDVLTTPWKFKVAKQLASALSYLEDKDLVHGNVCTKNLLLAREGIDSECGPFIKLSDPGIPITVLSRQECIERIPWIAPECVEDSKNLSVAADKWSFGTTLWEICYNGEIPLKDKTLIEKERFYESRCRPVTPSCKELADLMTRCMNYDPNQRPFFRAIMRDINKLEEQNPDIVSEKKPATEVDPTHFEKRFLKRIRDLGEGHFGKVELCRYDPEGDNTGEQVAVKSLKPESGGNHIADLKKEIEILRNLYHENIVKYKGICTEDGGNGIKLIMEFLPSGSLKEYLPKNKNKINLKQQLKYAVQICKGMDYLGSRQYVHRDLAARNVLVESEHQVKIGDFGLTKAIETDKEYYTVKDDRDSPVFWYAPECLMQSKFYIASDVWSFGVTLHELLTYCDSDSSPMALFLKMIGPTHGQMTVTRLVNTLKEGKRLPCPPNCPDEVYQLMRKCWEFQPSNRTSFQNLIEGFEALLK
Sequence of purified recombinant human JAK2 protein (O60674 whole entry): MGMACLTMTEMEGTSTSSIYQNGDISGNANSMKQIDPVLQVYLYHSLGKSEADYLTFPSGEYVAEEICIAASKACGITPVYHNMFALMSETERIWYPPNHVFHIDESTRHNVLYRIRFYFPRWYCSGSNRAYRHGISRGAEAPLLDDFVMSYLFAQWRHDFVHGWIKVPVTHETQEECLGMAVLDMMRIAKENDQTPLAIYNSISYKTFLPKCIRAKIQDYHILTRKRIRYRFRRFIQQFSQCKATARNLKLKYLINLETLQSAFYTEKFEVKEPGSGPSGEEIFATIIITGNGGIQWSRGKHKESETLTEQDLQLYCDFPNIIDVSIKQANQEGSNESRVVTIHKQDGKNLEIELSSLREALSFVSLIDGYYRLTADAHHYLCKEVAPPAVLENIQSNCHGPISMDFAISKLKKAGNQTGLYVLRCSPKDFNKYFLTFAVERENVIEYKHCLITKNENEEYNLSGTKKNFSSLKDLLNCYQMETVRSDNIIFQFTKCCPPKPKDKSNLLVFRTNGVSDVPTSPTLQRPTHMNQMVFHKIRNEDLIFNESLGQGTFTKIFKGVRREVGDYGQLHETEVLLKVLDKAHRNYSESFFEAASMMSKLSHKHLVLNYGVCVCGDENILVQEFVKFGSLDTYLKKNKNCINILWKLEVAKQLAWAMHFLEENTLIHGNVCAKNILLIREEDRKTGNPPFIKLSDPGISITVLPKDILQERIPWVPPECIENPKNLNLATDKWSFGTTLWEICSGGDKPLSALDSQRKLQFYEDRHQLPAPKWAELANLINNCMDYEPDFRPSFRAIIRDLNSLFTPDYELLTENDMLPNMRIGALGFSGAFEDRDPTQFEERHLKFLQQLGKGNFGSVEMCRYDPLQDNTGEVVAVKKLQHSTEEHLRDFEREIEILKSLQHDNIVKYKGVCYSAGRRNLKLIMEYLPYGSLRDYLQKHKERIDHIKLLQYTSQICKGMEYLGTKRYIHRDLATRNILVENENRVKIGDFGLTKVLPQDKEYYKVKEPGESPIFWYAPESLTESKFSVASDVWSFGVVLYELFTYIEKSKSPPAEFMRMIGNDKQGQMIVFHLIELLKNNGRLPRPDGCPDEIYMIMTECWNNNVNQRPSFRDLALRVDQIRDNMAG

IC50 [1]	IC50 [2]	IC50 [3]	Structure (SMILES)	IC50 (human PBMC)	suppression of IFN-γ production in vivo [4]
> 1000 nM	> 1000 nM	0.09 nM	C=CC(=O)Nc1cccc(-c2ncnc3[nH]cc(-c4ccccc4)c23)c1 [Comparative Example 12, N-(3-(5-Phenyl-7H-pyrrolo[2,3-d]pyrimidin-4-yl)phenyl)acrylamide, reference compound]	546 nM	did not exhibit such a significant IFN-γ production-suppressing action
440 nM	330 nM	< 0.3 nM	C=CC(=O)N[C@H]1CCC=C(c2ncnc3[nH]cc(-c4ccco4)c23)C1 [Compound 7, (S)—N-(3-(5-(Furan-2-yl)-7H-pyrrolo[2,3-d]pyrimidin-4-yl)cyclohex-3-en-1-yl)acrylamide]	18 nM	–
1400 nM	430 nM	< 0.3 nM	C=CC(=O)NC1CC=C(c2ncnc3[nH]cc(-c4ccco4)c23)C1 (stereo not shown) [Compound 8, N-(3-(5-(Furan-2-yl)-7H-pyrrolo[2,3-d]pyrimidin-4-yl)cyclopent-3-en-1-yl)acrylamide]	83 nM	–
2100 nM	880 nM	< 0.3 nM	C=CC(=O)NC1CC=C(c2ncnc3[nH]cc(-c4ccccc4)c23)C1 (stereo not shown) [Compound 9, N-(3-(5-Phenyl-7H-pyrrolo[2,3-d]pyrimidin-4-yl)cyclopent-3-en-1-yl)acrylamide]	99 nM	–
3200 nM	490 nM	< 0.3 nM	C=CC(=O)NC1C=C(c2ncnc3[nH]cc(-c4cccs4)c23)CCC1 (stereo not shown) [Compound 13, N-(3-(5-(Thiophen-2-yl)-7H-pyrrolo[2,3-d]pyrimidin-4-yl)cyclohex-2-en-1-yl)acrylamide]	110 nM	–
5600 nM	1200 nM	< 0.3 nM	C=CC(=O)NC1C=C(c2ncnc3[nH]cc(-c4ccsc4)c23)CCC1 (stereo not shown) [Compound 14, N-(3-(5-(Thiophen-3-yl)-7H-pyrrolo[2,3-d]pyrimidin-4-yl)cyclohex-2-en-1-yl)acrylamide]	110 nM	–
